Key:
Format in all cases: cell-based
Enterobacter cloacae = assay: MIC against Gram-negative bacteria: Enterobacter cloacae; settings: 5×10^5 CFU/mL; for MIC E. cloacae: two-fold serial dilution
How it was run: (§1)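 Purified recombinant human EGF domain proteins are tested by broth dilution in LB against a 5×10^5 CFU/mL inoculum, with two-fold serial dilutions run in triplicate. Plates are incubated at 37° C with shaking, and the MIC is read as the lowest protein concentration without growth.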

Moraxella catarrhalis = assay: MIC against Gram-negative bacteria: Moraxella catarrhalis; settings: 5×10^5 CFU/mL; for MIC M. catarrhalis: two-fold serial dilution
How it was run: as §1

E. coli DH5α = assay: Antibacterial activity: MIC and growth curve against E. coli DH5α in 96-well plate; settings: minimal inhibitory concentration against E. coli DH5α; 96-well plate, 5×10^5 CFU/mL, 37° C., judged after 8 h
How it was run: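 MIC taken as lowest protein level with no bacterial growth, tracked by A600 every 30 min during 37 °C, 175 rpm culture. Two-fold protein series 50-12.5 μg/mL final, triplicate wells, against 5×10^5 CFU/mL of LB-washed mid-log cells.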

Proteus mirabilis = assay: MIC against Gram-negative bacteria: Proteus mirabilis; settings: 5×10^5 CFU/mL; for MIC P. mirabilis: two-fold serial dilution
How it was run: as §1

Citrobacter diversus = assay: MIC against Gram-negative bacteria: Citrobacter diversus; settings: 5×10^5 CFU/mL; for MIC C. diversus: two-fold serial dilution
How it was run: as §1

Aeromonas hydrophila = assay: MIC against Gram-negative bacteria: Aeromonas hydrophila; settings: 5×10^5 CFU/mL; for MIC A. hydrophila: two-fold serial dilution
How it was run: as §1

Pseudomonas aeruginosa = assay: MIC against Gram-negative bacteria: Pseudomonas aeruginosa; settings: 5×10^5 CFU/mL; for MIC P. aeruginosa: two-fold serial dilution
How it was run: as §1

Proteus vulgaris = assay: MIC against Gram-negative bacteria: Proteus vulgaris; settings: 5×10^5 CFU/mL; for MIC P. vulgaris: two-fold serial dilution
How it was run: as §1

E. coli BL21 = assay: MIC against Gram-negative bacteria: E. coli BL21; settings: 5×10^5 CFU/mL; for MIC E. coli BL21: two-fold serial dilution
How it was run: as §1

Klebsiella pneumonia = assay: MIC against Gram-negative bacteria: Klebsiella pneumonia; settings: 5×10^5 CFU/mL; for MIC K. pneumonia: two-fold serial dilution
How it was run: as §1

Serratia marcescens = assay: MIC against Gram-negative bacteria: Serratia marcescens; settings: 5×10^5 CFU/mL; for MIC S. marcescens: two-fold serial dilution
How it was run: as §1

[1] = E. cloacae, 10 h cultivation at 37° C.
[2] = M. catarrhalis, 10 h cultivation at 37° C.
[3] = P. mirabilis, 10 h cultivation at 37° C.
[4] = C. diversus, 10 h cultivation at 37° C.
[5] = A. hydrophila, 10 h cultivation at 37° C.
[6] = P. aeruginosa, 10 h cultivation at 37° C.
[7] = P. vulgaris, 10 h cultivation at 37° C.
[8] = E. coli BL21, 10 h cultivation at 37° C.
[9] = K. pneumonia, 10 h cultivation at 37° C.
[10] = S. marcescens, 10 h cultivation at 37° C.

PRT61 (KDECSKDNGGCQQDCVNTFGSYECQCRSGFVLHDNKHDCK; listed as Homo sapiens)
MIC (μg/mL) E. cloacae (Enterobacter cloacae; Enterobacter cloacae, 96-well plate, 37° C., 10 h): 12.5 µg/mL | MIC (μg/mL) M. catarrhalis (Moraxella catarrhalis; Moraxella catarrhalis, 96-well plate, 37° C., 10 h): 25 µg/mL | MIC (E. coli DH5α): 12.5 µg/mL | MIC (μg/mL) P. mirabilis (Proteus mirabilis; Proteus mirabilis, 96-well plate, 37° C., 10 h): 25 µg/mL | MIC (μg/mL) C. diversus (Citrobacter diversus; Citrobacter diversus, 96-well plate, 37° C., 10 h): 25 µg/mL | MIC (μg/mL) A. hydrophila (Aeromonas hydrophila; Aeromonas hydrophila, 96-well plate, 37° C., 10 h): 12.5 µg/mL | MIC (μg/mL) P. aeruginosa (Pseudomonas aeruginosa; Pseudomonas aeruginosa, 96-well plate, 37° C., 10 h): 12.5 µg/mL | MIC (μg/mL) P. vulgaris (Proteus vulgaris; Proteus vulgaris, 96-well plate, 37° C., 10 h): 12.5 µg/mL | MIC (μg/mL) E. coli BL21 (E. coli BL21; E. coli BL21, 96-well plate, 37° C., 10 h): 50 µg/mL | MIC (μg/mL) K. pneumonia (Klebsiella pneumonia; Klebsiella pneumonia, 96-well plate, 37° C., 10 h): 12.5 µg/mL | MIC (μg/mL) S. marcescens (Serratia marcescens; Serratia marcescens, 96-well plate, 37° C., 10 h): 25 µg/mL

PRT1095 (EVQWCGFSPCPHGAQCQPVLQGFECIANAVFNGQSGQ; listed as Homo sapiens)
MIC E. cloacae (Enterobacter cloacae; 10 h cultivation at 37° C.): 12.5 µg/mL | MIC M. catarrhalis (Moraxella catarrhalis; 10 h cultivation at 37° C.): 50 µg/mL | MIC (E. coli DH5α): 50 µg/mL | MIC P. mirabilis (Proteus mirabilis; 10 h cultivation at 37° C.): 25 µg/mL | MIC C. diversus (Citrobacter diversus; 10 h cultivation at 37° C.): 25 µg/mL | MIC A. hydrophila (Aeromonas hydrophila; 10 h cultivation at 37° C.): 25 µg/mL | MIC P. aeruginosa (Pseudomonas aeruginosa; 10 h cultivation at 37° C.): 50 µg/mL | MIC P. vulgaris (Proteus vulgaris; 10 h cultivation at 37° C.): 12.5 µg/mL | MIC E. coli BL21 (E. coli BL21; 10 h cultivation at 37° C.): 12.5 µg/mL | MIC K. pneumonia (Klebsiella pneumonia; 10 h cultivation at 37° C.): 25 µg/mL | MIC S. marcescens (Serratia marcescens; 10 h cultivation at 37° C.): 50 µg/mL

PRT584 (CQCSHEGALSSLCEKTSGQCLCRTGAFGLRCDRCQRGQWGFPSCRP; listed as Homo sapiens)
MIC against E. cloacae (Enterobacter cloacae; 96-well plate, 37° C., 10 h): 25 µg/mL | MIC against M. catarrhalis (Moraxella catarrhalis; 96-well plate, 37° C., 10 h): 50 µg/mL | MIC (E. coli DH5α): 50 µg/mL | MIC against P. mirabilis (Proteus mirabilis; 96-well plate, 37° C., 10 h): 25 µg/mL | MIC against C. diversus (Citrobacter diversus; 96-well plate, 37° C., 10 h): 25 µg/mL | MIC against A. hydrophila (Aeromonas hydrophila; 96-well plate, 37° C., 10 h): 50 µg/mL | MIC against P. aeruginosa (Pseudomonas aeruginosa; 96-well plate, 37° C., 10 h): 25 µg/mL | MIC against P. vulgaris (Proteus vulgaris; 96-well plate, 37° C., 10 h): 50 µg/mL | MIC against E. coli BL21 (E. coli BL21; 96-well plate, 37° C., 10 h): 50 µg/mL | MIC against K. pneumonia (Klebsiella pneumonia; 96-well plate, 37° C., 10 h): 50 µg/mL | MIC against S. marcescens (Serratia marcescens; 96-well plate, 37° C., 10 h): 25 µg/mL

PRT439 (DINECQESSPCHQRCFNAIGSFHCGCEPGYQLKGRKCM; listed as Homo sapiens)
MIC (Enterobacter cloacae; [1]): 25 µg/mL | MIC (Moraxella catarrhalis; [2]): 50 µg/mL | MIC (E. coli DH5α): 25 µg/mL | MIC (Proteus mirabilis; [3]): 12.5 µg/mL | MIC (Citrobacter diversus; [4]): 25 µg/mL | MIC (Aeromonas hydrophila; [5]): 12.5 µg/mL | MIC (Pseudomonas aeruginosa; [6]): 25 µg/mL | MIC (Proteus vulgaris; [7]): 50 µg/mL | MIC (E. coli BL21; [8]): 12.5 µg/mL | MIC (Klebsiella pneumonia; [9]): 50 µg/mL | MIC (Serratia marcescens; [10]): 12.5 µg/mL

PRT1425 (DIDECENGGFCSGVCHNLPGTFECICGPDSALARHIGTDCD; listed as Homo sapiens)
MIC against E. cloacae (Enterobacter cloacae; Enterobacter cloacae, 10 h cultivation at 37° C.): 25 µg/mL | MIC against M. catarrhalis (Moraxella catarrhalis; Moraxella catarrhalis, 10 h cultivation at 37° C.): 12.5 µg/mL | MIC (E. coli DH5α): 12.5 µg/mL | MIC against P. mirabilis (Proteus mirabilis; Proteus mirabilis, 10 h cultivation at 37° C.): 12.5 µg/mL | MIC against C. diversus (Citrobacter diversus; Citrobacter diversus, 10 h cultivation at 37° C.): 50 µg/mL | MIC against A. hydrophila (Aeromonas hydrophila; Aeromonas hydrophila, 10 h cultivation at 37° C.): 12.5 µg/mL | MIC against P. aeruginosa (Pseudomonas aeruginosa; Pseudomonas aeruginosa, 10 h cultivation at 37° C.): 12.5 µg/mL | MIC against P. vulgaris (Proteus vulgaris; Proteus vulgaris, 10 h cultivation at 37° C.): 12.5 µg/mL | MIC against E. coli BL21 (E. coli BL21; [8]): 50 µg/mL | MIC against K. pneumonia (Klebsiella pneumonia; Klebsiella pneumonia, 10 h cultivation at 37° C.): 50 µg/mL | MIC against S. marcescens (Serratia marcescens; Serratia marcescens, 10 h cultivation at 37° C.): 12.5 µg/mL

PRT1160 (DTEDCKSASCKNGTTSTHLRGYFFRKCVPGFKGTQCE; listed as Homo sapiens)
MIC E. cloacae (Enterobacter cloacae; 10 h cultivation at 37° C.): 12.5 µg/mL | MIC M. catarrhalis (Moraxella catarrhalis; 10 h cultivation at 37° C.): 12.5 µg/mL | MIC (E. coli DH5α): 12.5 µg/mL | MIC P. mirabilis (Proteus mirabilis; 10 h cultivation at 37° C.): 25 µg/mL | MIC C. diversus (Citrobacter diversus; 10 h cultivation at 37° C.): 25 µg/mL | MIC A. hydrophila (Aeromonas hydrophila; 10 h cultivation at 37° C.): 12.5 µg/mL | MIC P. aeruginosa (Pseudomonas aeruginosa; 10 h cultivation at 37° C.): 12.5 µg/mL | MIC P. vulgaris (Proteus vulgaris; 10 h cultivation at 37° C.): 12.5 µg/mL | MIC E. coli BL21 (E. coli BL21; 10 h cultivation at 37° C.): 25 µg/mL | MIC K. pneumonia (Klebsiella pneumonia; 10 h cultivation at 37° C.): 25 µg/mL | MIC S. marcescens (Serratia marcescens; 10 h cultivation at 37° C.): 25 µg/mL

PRT243 (DVNECGMKPRPCQHRCVNTHGSYKCFCLSGHMLMPDATCV; listed as Homo sapiens)
MIC (μg/mL) E. cloacae (Enterobacter cloacae; [1]): 12.5 µg/mL | MIC (μg/mL) M. catarrhalis (Moraxella catarrhalis; [2]): 25 µg/mL | MIC (E. coli DH5α): 12.5 µg/mL | MIC (μg/mL) P. mirabilis (Proteus mirabilis; [3]): 12.5 µg/mL | MIC (μg/mL) C. diversus (Citrobacter diversus; [4]): 12.5 µg/mL | MIC (μg/mL) A. hydrophila (Aeromonas hydrophila; [5]): 25 µg/mL | MIC (μg/mL) P. aeruginosa (Pseudomonas aeruginosa; [6]): 12.5 µg/mL | MIC (μg/mL) P. vulgaris (Proteus vulgaris; [7]): 25 µg/mL | MIC (μg/mL) E. coli BL21 (E. coli BL21; [8]): 12.5 µg/mL | MIC (μg/mL) K. pneumonia (Klebsiella pneumonia; [9]): 12.5 µg/mL | MIC (μg/mL) S. marcescens (Serratia marcescens; [10]): 12.5 µg/mL

From patent US9833497B2, “Human originated EGF domain proteins and use of the same” (CHENGDU SOURCEBIO LIMITED-LIABILITY COMPANY, priority 2013, dated 2017)
